Measurements from US20210405025A1, “IDENTIFYING COMPOUNDS FOR TREATING CANCER AND USE THEREOF” (THE UAB RESEARCH FOUNDATION, priority 2018, published 2021).
Structures can show the parent of a compound that is named as a salt.

tested on: relapsed AML cells; assay: Drug sensitivity assay, 1,536-well, 3-day culture with individual approved drugs at 10 μM, viability by alamarBlue; assay type: cell-based, human; details: number of relapsed AML cases out of 18 tested with >70% cell death; 10 μM, 3-day culture
Procedure, shortened: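 FACS-sorted viable myeloid blasts from thawed AML samples, 4,000-4,500 cells per 5 μL well, cultured in IMDM with 15% BIT, SCF, FLT3L, IL-3, G-CSF. Drugs added per well; after three days percentage of live cells measured to gauge killing.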

First: COc1ccc(-c2ccc3ncc4c(c3c2)n(-c2ccc(N3CCNCC3)c(C(F)(F)F)c2)c(=O)n4C)cn1 [NVP-BGT226]
Second: VINFLUNINE TARTRATE
The “#Cases >70% cell death” value of the first is lower: 8 for the first, 14 for the second.

Going from `Cn1c(C#N)ccc1-c1ccc2c(c1)C(C)(C)OC(=S)N2` [TANAPROGET] to NALTRIBEN METHAN[…], the “#Cases >70% cell death” value falls from 5 to 1.

Compared with `CC(C)(C)CC(C)(C)c1cc(Cc2cc(C(C)(C)CC(C)(C)C)cc(-n3nc4ccccc4n3)c2O)c(O)c(-n2nc3ccccc3n2)c1` [BISOCTRIZOLE], `COc1cccc2c1C(=O)c1c(O)c3c(c(O)c1C2=O)C[C@@](O)(C(=O)CO)C[C@@H]3O[C@H]1C[C@H](N)[C@@H](O)[C@H](C)O1` [EPIRUBICIN] is higher in “#Cases >70% cell death” value: 1 for the first, 18 for the second.

`CC(C)C[C@H](NC(=O)CNC(=O)c1cc(Cl)ccc1Cl)B1OC(=O)C(CC(=O)O)(CC(=O)O)O1` [MLN9708] and `N#Cc1cc(CN2CCC(Nc3ncnc4sc(Cl)cc34)CC2)ccc1F` [PRX-8066] are the same in “#Cases >70% cell death” value: 1 for the first, 1 for the second.

Going from `CCC(=O)O[C@]1(C(=O)CCl)[C@@H](C)C[C@H]2[C@@H]3CCC4=CC(=O)C=C[C@]4(C)[C@@]3(F)[C@@H](O)C[C@@]21C` [CLOBETASOL PROPIONATE] to `OCCN(CCO)c1nc(N2CCCCC2)c2nc(N(CCO)CCO)nc(N3CCCCC3)c2n1` [DIPYRIDAMOLE], the “#Cases >70% cell death” value falls from 4 to 2.

Going from `CC[n+]1c(-c2ccccc2)c2cc(N)ccc2c2ccc(N)cc21` [HOMIDIUM BROMIDE] to `CCc1ccc(OCc2ccccc2C(=O)Nc2ccc3nc(C)cc(N)c3c2)cc1` [JTC-801], the “#Cases >70% cell death” value rises from 1 to 18.

First: C[C@@H]1CCN(C(=O)CC#N)C[C@@H]1N(C)c1ncnc2[nH]ccc12 [TOFACETINIB]
Second: CCCCc1oc2ccc(NS(C)(=O)=O)cc2c1C(=O)c1ccc(OCCCN(CCCC)CCCC)cc1 [DRONEDARONE]
The “#Cases >70% cell death” value of the first is lower: 4 for the first, 12 for the second.

`CC(=O)[C@@]1(O)CC[C@H]2[C@@H]3C[C@H](C)C4=CC(=O)C=C[C@]4(C)[C@@]3(F)[C@@H](O)C[C@@]21C` [FLUOROMETHOLONE] and BLEOMYCIN are the same in “#Cases >70% cell death” value: 2 for the first, 2 for the second.

First: CCN(CC)CCN(Cc1ccc(-c2ccc(C(F)(F)F)cc2)cc1)C(=O)Cn1c(SCc2ccc(F)cc2)nc(=O)c2c1CCC2 [DARAPLADIB]
Second: CN1C[C@H](C(=O)N[C@]2(C)O[C@@]3(O)[C@@H]4CCCN4C(=O)[C@H](Cc4ccccc4)N3C2=O)C[C@@H]2c3cccc4[nH]cc(c34)C[C@H]21 [DIHYDROERGOTAMINE MESYLATE]
The “#Cases >70% cell death” value of the first is higher: 18 for the first, 1 for the second.

Compared with `CCCCCCCCCCCCCCCC[N+](C)(C)CCN(Cc1ccc(OC)cc1)c1ncccn1` [THONZONIUM BROMIDE], `C=CC(N)CCC(=O)O` (stereo not shown) [VIGABATRIN] is lower in “#Cases >70% cell death” value: 18 for the first, 13 for the second.

First: Clc1ccc(CO/N=C(\Cn2ccnc2)c2ccc(Cl)cc2Cl)c(Cl)c1 [OXICONAZOLE]
Second: CN1CCN(CCCN2c3ccccc3Sc3ccc(Cl)cc32)CC1 [PROCHLORPERAZINE]
The “#Cases >70% cell death” value of the first is lower: 1 for the first, 6 for the second.

Compared with `Cc1c(-c2ccc(O)cc2)n(Cc2ccc(OCCN3CCCCCC3)cc2)c2ccc(O)cc12` [BAZEDOXIFENE HCL], `CC[C@H]1CN2CCc3cc(OC)c(OC)cc3[C@@H]2C[C@@H]1C[C@H]1NCCc2cc(OC)c(OC)cc21` [EMETINE] is higher in “#Cases >70% cell death” value: 8 for the first, 18 for the second.

Compared with `O=C(CCCN1CCN(c2ccccn2)CC1)c1ccc(F)cc1` [AZAPERONE], `CCCCCCCCCCC[C@@H](C[C@@H]1OC(=O)[C@H]1CCCCCC)OC(=O)[C@H](CC(C)C)NC=O` [ORLISTAT] is higher in “#Cases >70% cell death” value: 1 for the first, 9 for the second.

Going from `Cc1cccc(C)c1N=C1NCCCS1` [XYLAZINE] to `O=C1c2c(O)ccc(O)c2C(=O)c2c(NCCNCCO)ccc(NCCNCCO)c21` [MITOXANTRONE], the “#Cases >70% cell death” value rises from 4 to 18.

First: C[C@@H]1O[C@@H](O[C@H]2C[C@@H](O)[C@]3(CO)[C@H]4[C@H](O)C[C@]5(C)[C@@H](C6=CC(=O)OC6)CC[C@]5(O)[C@@H]4CC[C@]3(O)C2)[C@H](O)[C@H](O)[C@H]1O.O.O.O.O.O.O.O.O [STROPHANTINE OCTAHYDRATE]
Second: Cc1cc(CC(C)CC(C)(C)C)n(O)c(=O)c1.NCCO (stereo not shown) [PIROCTONE OLAMINE]
The “#Cases >70% cell death” value of the first is higher: 18 for the first, 13 for the second.

Going from `Cc1cnc(C(=O)O)c[n+]1[O-]` [ACIPIMOX] to `C[C@@H]1O[C@@H](O[C@@H]2C=C3CC[C@@H]4[C@H](CC[C@]5(C)[C@@H](c6ccc(=O)oc6)CC[C@]45O)[C@@]3(C)CC2)[C@H](O)[C@H](O)[C@H]1O` [PROSCILLARIDIN], the “#Cases >70% cell death” value rises from 1 to 18.

Going from `N#Cc1ccc2[nH]cc(CCCCN3CCN(c4ccc5oc(C(N)=O)cc5c4)CC3)c2c1` [VILAZODONE] to `CCCCCCCCNC(C)C(O)c1ccc(SC(C)C)cc1` (stereo not shown) [SULOCTIDIL], the “#Cases >70% cell death” value rises from 2 to 12.

Compared with `C[C@@H]1CCCN1CCc1cc2cc(-c3ccc(C#N)cc3)ccc2o1` [ABT-239], `N=C(N)c1ccc(OCCCCCOc2ccc(C(=N)N)cc2)cc1` [PENTAMIDINE] is higher in “#Cases >70% cell death” value: 1 for the first, 2 for the second.

Going from `COc1cc2ncnc(Nc3ccc(F)c(Cl)c3)c2cc1OCCCN1CCOCC1` [GEFITINIB] to `CCCCCN(C)CCC(O)(P(=O)(O)O)P(=O)(O)O` [IBANDRONATE], the “#Cases >70% cell death” value falls from 2 to 1.

First: Fc1ccc(C(c2ccc(F)cc2)N2CCN(C/C=C/c3ccccc3)CC2)cc1 [FLUNARIZINE]
Second: CCOC(=O)C1=C[C@]2(CC)CCCN3CCc4c(n1c1ccccc41)[C@@H]32 [VINPOCETINE]
The “#Cases >70% cell death” value of the first is higher: 3 for the first, 1 for the second.

Going from `O=C(O)c1ccccc1C(=O)Nc1ccc(S(=O)(=O)Nc2nccs2)cc1` [PHTHALYLSULFATHIAZOLE] to `CC(=O)O[C@H]1C(=O)[C@@]2(C)[C@H]([C@H](OC(=O)c3ccccc3)[C@]3(O)C[C@H](OC(=O)[C@H](O)[C@@H](NC(=O)c4ccccc4)c4ccccc4)C(C)=C1C3(C)C)[C@]1(OC(C)=O)CO[C@@H]1C[C@@H]2O` [PACLITAXEL], the “#Cases >70% cell death” value rises from 1 to 5.

Compared with `OC(CN1CCC(Cc2ccc(F)cc2)CC1)c1ccc(Cl)cc1` (stereo not shown) [ELIPRODIL], `Cc1ccc2c(Br)cc(Br)c(OC(=O)c3ccccc3)c2n1` [BROXALDINE] is higher in “#Cases >70% cell death” value: 1 for the first, 2 for the second.

First: CC(=O)c1ccc2c(c1)N(CCCN(C)C)c1ccccc1S2 [ACEPROMAZINE MALEATE]
Second: BENZALKONIUM CHLORIDE
The “#Cases >70% cell death” value of the first is lower: 2 for the first, 15 for the second.

`Oc1c(Cl)cc(Cl)c2cccnc12` [CHLOROXINE] and `N[C@@H]1CONC1=O` [D-CYCLOSERINE] are the same in “#Cases >70% cell death” value: 1 for the first, 1 for the second.

In the case of `CCC(=O)O[C@]1(C(=O)SCF)[C@H](C)C[C@H]2[C@@H]3C[C@H](F)C4=CC(=O)C=C[C@]4(C)[C@@]3(F)[C@@H](O)C[C@@]21C` [FLUTICASONE PROPIONATE], the “#Cases >70% cell death” value is reported as 3.
